Reference: US20070009437A1, “Intracellular trapping of radionuclides by enzyme-mediated reduction” (priority 2003, published 2007)

Key:
[1] = test system: T. vaginalis (ATCC No. 30001); assay: Trapping of Tc99m pertechnetate in Trichomonas vaginalis (intracellular radioactivity, gamma counter); assay type: cell-based; details: 2 μCi, 37° C., 2×10^6 cells per tube, washed pellet
Description: T. vaginalis (ATCC No. 30001) was cultured in ATCC LYI entamoeba medium (ATCC No. PRA-2154) at 37° C. in test tubes to a titer of 2×10^6 cells per tube. Three test tubes were included in each group. T. vaginalis cells were incubated at 37° C. for a period of time after inoculation of 2 μci of Technetium 99m pertechnetate in each test tube. At end of incubation, the cells were harvested by centrifugation at […], for 10 minutes. The cellular pellet was washed three times with PBS to remove extra-cellular radioactivity. Intracellular radioactivity of the cells was counted with a gamma counter.

[2] = test system: E. coli BL21(DE3) Star transformed with pET-Duet + pACYCDuet (control); assay: Tc99m O4- reduction assay, control bacteria with Duet vectors only; assay type: cell-based, Escherichia coli; details: 15 mCi, aerobic
Description: (§1) E. coli BL21(DE3) Star (Invitrogen) was transformed with various constructs and grown on the appropriate selective media agars. In case of periplasmic fusion hydrogenases, dual co-transformation was accomplished using antibiotic selection markers, ampicillin and chloramphenicol. Transformed cells were grown at 37° C. in a standard laboratory shaker under aerobic conditions to an optical density at 600 nm (O.D.600) of 0.6 and then induced with 1 mM IPTG under a standard T7 promoter induction protocol. One ml aliquots of cells were collected at 0, 1, 2, and 3 hour time points following induction and mRNA was extracted using a bacterial mRNA extraction mini kit (Qiagen). 100 ng of the mRNA samples was DNAse treated (Invitrogen) according to the manufacturer's protocol. RNA quality was then analyzed using an Agilent 2100 Bioanalyzer, prokaryotic total RNA nano-chip. RT-PCR reactions were performed using the internal specific primers for HydA, Forward: 5′-[…] (SEQ ID NO:8); Reverse: 5′-[…] (SEQ ID NO:9) and Hyd B, Forward: 5′-[…] (SEQ ID NO:10), Reverse 5′-[…] (SEQ ID NO:11) and one step RT-PCR kit (Qiagen).
(§2) Tc99m O4—reduction assays were performed as follows: Bacterial cultures were grown to an O.D.600 of 0.6 in a simple rotary shaker under aerobic conditions. HydA and HydB genes were induced with 1 mM IPTG in the presence of 15 mCi of 99mTc Pertechnetate and ten ml aliquots of bacterial cultures were collected at 0, 1, 2, and 3 hr time points. The cells were spun down at 3500 rpm for 15 min, washed twice with 5 ml phosphate buffered saline (PBS) and the supernatant was collected and saved for later analysis. Control bacteria transformed with Duet vectors only were treated as controls. Total counts in the total cell pellet, 100 μl of media supernatant, and 1 ml of each wash, were then assayed using a gamma counter. Ten microliters of 99mTc pertechnetate was assayed to provide internal control between experiments.
(§3) In FIG. 12, the amount of radioactivity recorded in counts per minute was divided by the total number of counts expected per 10 ml of culture. The experimental values were determined by subtracting the control bacterial normalized CPM from the normalized CPM from the hydrogenase vector(s) transformed bacteria. The values obtained were therefore normalized counts per minute for the different cell lines.

[3] = test system: D. desulfuricans hydrogenase HydA/HydB (pETDuet/HydA/HydB) in E. coli BL21(DE3) Star; assay: Tc99m O4- reduction assay, bacteria with pETDuet/HydA/HydB; assay type: cell-based, Desulfovibrio desulfuricans; details: for Counts Per Minute, cell pellet, HYDA/B: 15 mCi, aerobic
Excerpt: (§4) Bacterial expression vectors were designed following standard molecular biology techniques. D. desulfuricans hydrogenase genes, Hyd A and Hyd B were PCR amplified using primers incorporated with unique restriction sites at the ends. The genes were inserted into pET-Duet1 (Novagen) vector under T7 RNA polymerase driven promoter through sequential restriction digestion and ligation. Periplasmic signal sequences were extracted from vectors pET-39b and pET-40b (Novagen) and ligated in-frame with start codon deficient Hydrogenase genes. Mammalian expression vectors were designed with mitochondrial signal sequences from pCMV/myc/mito, fused in frame by PCR amplification and ligation with both HydA and HydB genes. Additionally, the myc epitope was added in-frame at the C-terminus to facilitate subcellular localization and immunoprecipations.
as §1, §2, §3

[4] = test system: DsbA-HydA + DsbC-HydB (pACYC-DsbA-HydA + pETDuet/DsbC-HydB) in E. coli BL21(DE3) Star; assay: Tc99m O4- reduction assay, bacteria with both periplasmic Dsb fusion vectors; assay type: cell-based, Desulfovibrio desulfuricans; details: for Counts Per Minute, cell pellet, DSB FUSIONS: 15 mCi, aerobic
Excerpt: as §4, §1, §2, §3
(§5) However, this increase was negligible when compared to cells containing both HydA and HydB in separate (individual) Dsb fusion vector constructs.

[5] = test system: DsbA-HydA fusion (pACYC-DsbA-HydA alone) in E. coli BL21(DE3) Star; assay: Tc99m O4- reduction assay, bacteria with pACYC-DsbA-HydA alone; assay type: cell-based, Desulfovibrio desulfuricans; details: 15 mCi, aerobic
Excerpt: as §4, §1
Tc99m O4—reduction assays were performed as follows: Bacterial cultures were grown to an O.D.600 of 0.6 in a simple rotary shaker under aerobic conditions. HydA and HydB genes were induced with 1 mM IPTG in the presence of 15 mCi of 99mTc Pertechnetate and ten ml aliquots of bacterial cultures were collected at 0, 1, 2, and 3 hr time points. The cells were spun down at 3500 rpm for 15 min, washed twice with 5 ml phosphate buffered saline (PBS) and the supernatant was collected and saved for later analysis. […]
as §3, with “The values obtained were therefore normalized counts per minute for the different cell lines.” left out

[6] = test system: DsbC-HydB fusion (pETDuet/DsbC-HydB alone) in E. coli BL21(DE3) Star; assay: Tc99m O4- reduction assay, bacteria with pETDuet/DsbC-HydB alone; assay type: cell-based, Desulfovibrio desulfuricans; details: for Counts Per Minute, cell pellet, FB: 15 mCi, aerobic
Excerpt: as §4, §1, §2, §3, §5

[O]=[99Tc](=[O])(=[O])[O-] [Technetium 99m pertechnetate]
RADIOACTIVITY (dpm) in T. vaginalis ([1]; incubation 30 minutes): 24904 dpm | RADIOACTIVITY (dpm) in T. vaginalis ([1]; incubation 45 minutes): 45127 dpm | RADIOACTIVITY (dpm) in T. vaginalis ([1]; incubation 12 hours): 1915843 dpm | Counts Per Minute, cell pellet, D + P (control) ([2]; 0 hr after 1 mM IPTG induction): 2777 cpm | Counts Per Minute, cell pellet, D + P (control) ([2]; 1 hr after 1 mM IPTG induction): 6939 cpm | Counts Per Minute, cell pellet, D + P (control) ([2]; 2 hr after 1 mM IPTG induction): 10045 cpm | Counts Per Minute, cell pellet, D + P (control) ([2]; 3 hr after 1 mM IPTG induction): 11944 cpm | Counts Per Minute, cell pellet, HYDA/B ([3]; 0 hr after 1 mM IPTG induction): 2074 cpm | Counts Per Minute, cell pellet, HYDA/B ([3]; 1 hr after 1 mM IPTG induction): 5543 cpm | Counts Per Minute, cell pellet, HYDA/B ([3]; 2 hr after 1 mM IPTG induction): 8031 cpm | Counts Per Minute, cell pellet, HYDA/B ([3]; 3 hr after 1 mM IPTG induction): 12339 cpm | trapping in vitro as compared to control cells ([3]; bacteria overexpressing HydA and HydB genes): significantly higher trapping | radioactivity within cells relative to control cells ([3]; pETDuet1/HydA/HydB vector vs pET-Duet+PAcYCDuet vector): noticeable increase in radioactivity | Counts Per Minute, cell pellet, DSB FUSIONS ([4]; 0 hr after 1 mM IPTG induction): 4185 cpm | Counts Per Minute, cell pellet, DSB FUSIONS ([4]; 1 hr after 1 mM IPTG induction): 38129 cpm | Counts Per Minute, cell pellet, DSB FUSIONS ([4]; 2 hr after 1 mM IPTG induction): 80021 cpm | Counts Per Minute, cell pellet, DSB FUSIONS ([4]; 3 hr after 1 mM IPTG induction): 56611 cpm | 99mTc association with the bacteria ([4]; DsbA and DsbC ligated in fusion to Hyd A and Hyd B): increased 99mTc association with the bacteria | Counts Per Minute, cell pellet, FA ([5]; 0 hr after 1 mM IPTG induction): 7074 cpm | Counts Per Minute, cell pellet, FA ([5]; 1 hr after 1 mM IPTG induction): 8503 cpm | Counts Per Minute, cell pellet, FA ([5]; 2 hr after 1 mM IPTG induction): 15323 cpm | Counts Per Minute, cell pellet, FA ([5]; 3 hr after 1 mM IPTG induction): 23935 cpm | Counts Per Minute, cell pellet, FB ([6]; 0 hr after 1 mM IPTG induction): 4643 cpm | Counts Per Minute, cell pellet, FB ([6]; 1 hr after 1 mM IPTG induction): 40064 cpm | Counts Per Minute, cell pellet, FB ([6]; 2 hr after 1 mM IPTG induction): 55201 cpm | Counts Per Minute, cell pellet, FB ([6]; 3 hr after 1 mM IPTG induction): 77462 cpm | entrapment of radionuclide by cells ([6]; Hyd B-Dsb fusion alone vs both fusion hydrogenase products together): higher than that of both fusion hydrogenase products together
